The test system of data set [1] is FADD-deficient Jurkat T cells treated with TNF-α. Description: Inhibition of necroptosis (CICD) in FADD-deficient Jurkat T cells treated with TNF-α, ATP-based viability. Format: cell-based, human.
The test system of another data set is Jurkat T cells. Description: Necrosis (CICD) of Jurkat T cells induced by Fas ligand, cycloheximide and zVAD, ATP assay. Format: cell-based, human. The following applies: FasL/CHX/zVAD. The method, then: Jurkat cells were treated with 5 ng/ml of FasL without (A) or with cyclohexamide (CHX) (B) to induce apoptosis, or 5 ng/ml FasL, 1 μg/ml of CHX and 100 μM of zVAD.fmk to induce CICD (B). […] Cell viability was determined after 24 hours of incubation with indicated reagents using CellTiter-Glo ATP assay. The values represent viability relative to the control Jurkat cells without the treatment of FasL, which was set as 100% viability.
FIG. 34A is a graph showing the results of treating Jurkat T cells with Fas ligand (5 ng/ml), cyclohexamide (1 μg/ml) and zVAD (100 μM) in the presence of the indicated amounts of anti-necrotic compounds (4) and (5). Viability was determined 36 hours later using an ATP assay. The viability values are relative to the samples lacking Fas ligand, which were used as 100% viability controls. FIG. 34B is a graph as in FIG. 34A, in which the anti-necrotic compounds are (19) and (20).
Compounds were also tested in another necrosis assay utilizing human Jurkat T cells, Fas ligand to induce cell death, and zVAD to inhibit the apoptosis pathway. After 36 hours, cell viability was measure by the commercial CellTiter ATP cell viability assay (Promega).

Data set [2] concerns FADD deficient Jurkat cells. The following applies: compound alone.
A further data set concerns U937 cells. The data set is described as follows: Oxidative stress (menadione) induced death of U937 cells, ATP assay. Format: cell-based, human. The following applies: 250 μM menadione, 24 hours. The procedure: Viability of TNFα/zVAD/DMSO or manadione/DMSO blank treated cells is also shown (- - -). Viability was determined using ATP-Lite-M assay (Packard). Numbers represent percentages of live cells. The values were normalized relative to the zVAD or DMSO treated controls, which were set as 100% viability.
In this and subsequent panels, cell viability was determined via ATP assay. Numbers represent viability normalized to that of the DMSO-treated cells in the absence of TNFα and menadione. Throughout, error bars represent standard deviations. […] Representative images are shown. […] Protein lysates were subjected to western blotting with antibodies to LC3 and to tubulin. The ratio of LC3-II to tubulin signals was calculated (“Ratio”) and normalized to the value in the control sample. […] Alternatively, cells were treated with 2 μM rapamycin. […] Numbers represent viability normalized to that of the compound-treated cells in the absence of TNFα. In FIG. 28H, expression of beclin-1 (“Bec”) and tubulin (“Tub”) in the stable populations of cells in FIG. 28G was analyzed by western blotting.

[3] abbreviates: Homo sapiens, Jurkat, 24 h, read-out: EC50 (μM) for inhibition of necroptosis.

“Also recorded” adds a separate entry of the source. Read-outs that look alike come from different tables or passages of the source.

Consider `CC(=O)N1N=C2c3cc(C)ccc3OC[C@H]2[C@@H]1c1ccc(F)cc1` (relative stereo) [Compound 184, (3R,3aS)-rel-2-acetyl-2,3,3a,4-tetrahydro-3-(4-fluorophenyl)-8-methyl-[1]benzopyrano[4,3-c]pyrazole], for which the melting point was 218 to 220 °C. Further, the 50% effective concentration (EC50) in data set [1] (setting [3]) was over 100 µM.
Regarding `COc1ccc2c(c1)C1=NN(C(C)=O)[C@@H](c3ccc4c(c3)OCO4)[C@@H]1CC2` (relative stereo) [Compound 205, (3R,3aS)-rel-2-acetyl-3,3a,4,5-tetrahydro-3-(3,4-methylenedioxyphenyl)-8-methoxy-2H-benz[g]indazole], the melting point lay in the range of 165 to 169 °C.
`COc1ccc([C@H]2[C@@H]3CCc4ccc(OC)cc4C3=NN2C(C)=O)cc1` (relative stereo) [Compound 142, (3R,3aS)-rel-2-acetyl-3,3a,4,5-tetrahydro-3-(4-methoxyphenyl)-8-methoxy-2H-benz[g]indazole]: the “inhibition of CICD/necrosis of Jurkat cells, in words” value with Jurkat T cells is “only the cis isomers (4) (FIG. 34A) and (19) (FIG. 34B) were found to efficiently inhibit necrosis”.
For the compound `COc1cc2c(cc1OC)C1=NN(C(C)=O)[C@@H](c3ccc(F)cc3)[C@@H]1CC2` (relative stereo) [Compound 198, (3R,3aS)-rel-2-acetyl-3,3a,4,5-tetrahydro-3-(4-fluorophenyl)-7,8-dimethoxy-2H-benz[g]indazole], the melting point lay in the range of 231 to 233 °C.
As for `COc1ccc2c(c1)C1=NN(C(C)=O)[C@@H](c3ccc4c(c3)OCO4)[C@H]1CC2` (relative stereo) [Compound 177, (3R,3aR)-rel-2-acetyl-3,3a,4,5-tetrahydro-3-(3,4-methylenedioxyphenyl)-8-methoxy-2H-benz[g]indazole], the melting point lay within 206 to 209 °C. Also, the EC50 in data set [1] (setting [3]) stood at 2.6 ± 1.3 µM.
As to `COc1ccc2c(c1)C1=NN(C(C)=O)[C@@H](c3ccc(F)cc3)[C@@H]1CC2` (relative stereo) [Compound 160, (3R,3aS)-rel-2-acetyl-3,3a,4,5-tetrahydro-3-(4-fluorophenyl)-8-methoxy-2H-benz[g]indazole], in data set [1] (setting [3]), the EC50 was determined as 3.7 ± 0.75 µM. Further, in the data set with Jurkat T cells, the “inhibition of CICD/necrosis of Jurkat cells, in words” value is “only the cis isomers (4) (FIG. 34A) and (19) (FIG. 34B) were found to efficiently inhibit necrosis”.
Turning to `CC(=O)N1N=C2c3ccccc3CC[C@H]2[C@@H]1c1ccc(F)cc1` (relative stereo) [Compound 199, (3R,3aS)-rel-2-acetyl-3,3a,4,5-tetrahydro-3-(4-fluorophenyl)-2H-benz[g]indazole], the melting point is 168 to 171 °C.
For the compound `CN1C(=O)NC(Cc2c[nH]c3c(Cl)cccc23)C1=O` (centres unmarked) [7-Cl—O-Nec-1], the “antinecroptotic (anti-CICD) activity, in words” value in data set [1] (FADD-deficient Jurkat cells, TNFα) is “equally potent anti-CICD activity; also recorded: possessing antinecroptotic activity in vitro similar to that of 7-Cl-Nec-1”. Further, the concentration giving a half-maximal response (EC50) in data set [1] (Jurkat FADD deficient cells treated with TNFα, read-out: EC50) amounted to 0.206 ± 0.033 µM. The “LD50 (nonspecific toxicity)” value in data set [2] is on record as over 1 mM.
In turn, `COc1ccc2c(c1)C1=NN(C(C)=O)[C@@H](c3ccc4c(c3)OCCO4)[C@@H]1CC2` (relative stereo) [Compound 206, (3R,3aS)-rel-2-acetyl-3,3a,4,5-tetrahydro-3-(3,4-ethylenedioxyphenyl)-8-methoxy-2H-benz[g]indazole] gave a melting point of 194 to 197 °C.
On to `COc1ccc2c(c1)C1=NN(C(C)=O)[C@@H](c3ccc(F)cc3)[C@H]1CC2` (relative stereo) [Compound 161, (3R,3aR)-rel-2-acetyl-3,3a,4,5-tetrahydro-3-(4-fluorophenyl)-8-methoxy-2H-benz[g]indazole], for which the concentration for a half-maximal effect (EC50) in data set [1] (setting [3]) stood at 0.96 ± 0.085 µM. Also, the “inhibition of CICD/necrosis of Jurkat cells, in words” value in the data set on Jurkat T cells is “efficiently inhibit necrosis and result in high cell viability”.
Turning to `COc1ccc2c(c1)C1=NN(C(C)=O)[C@@H](c3ccc(F)cc3)[C@H]1CO2` (relative stereo) [Compound 186, (3R,3aR)-rel-2-acetyl-2,3,3a,4-tetrahydro-3-(4-fluorophenyl)-8-methoxy-[1]benzopyrano[4,3-c]pyrazole], the melting point stood at 245 °C. Besides, the EC50 in data set [1] (setting [3]) is 4.8 ± 1.3 µM.
As to `COc1ccc2c(c1)C1=NN(C(C)=O)[C@@H](c3cccc(F)c3)[C@@H]1CC2` (relative stereo) [Compound 200, (3R,3aS)-rel-2-acetyl-3,3a,4,5-tetrahydro-3-(3-fluorophenyl)-8-methoxy-2H-benz[g]indazole], the melting point was 196 to 199 °C.
Regarding vitamin E [reference compound], in the data set on U937 cells, the “protection from menadione induced cell death, in words” value (“protection” for short) is “provided protection against menadione”.
`COc1cc2c(cc1OC)C1=NN(C(C)=O)[C@@H](c3ccc(F)cc3)[C@H]1CC2` (relative stereo) [Compound 164, (3R,3aR)-rel-2-acetyl-3,3a,4,5-tetrahydro-3-(4-fluorophenyl)-7,8-dimethoxy-2H-benz[g]indazole] showed a melting point of 189 to 193 °C. Moreover, the half-maximal effective concentration (EC50) in data set [1] (setting [3]) was over 100 µM.
Take catalase [reference compound]: the “protection” value with U937 cells is reported as “provided protection against menadione”.
Turning to `CC(=O)N1N=C2c3cc(C)ccc3OC[C@@H]2[C@@H]1c1ccc(F)cc1` (relative stereo) [Compound 185, (3R,3aR)-rel-2-acetyl-2,3,3a,4-tetrahydro-3-(4-fluorophenyl)-8-methyl-[1]benzopyrano[4,3-c]pyrazole], the melting point fell in the range of 243 to 246 °C. The EC50 in data set [1] (setting [3]) was determined as 11.6 ± 6.1 µM.
For `COc1ccc([C@H]2[C@@H]3CCc4ccccc4C3=NN2C(C)=O)cc1` (relative stereo) [Compound 201, (3R,3aS)-rel-2-acetyl-3,3a,4,5-tetrahydro-3-(4-methoxyphenyl)-2H-benz[g]indazole], the melting point fell in the range of 260 to 262 °C.
As to `O=c1[nH]c2ccccc2c2ccccc12` [6(5H)-Phenanthridione, reference compound], the “inhibition of CICD/necrosis of Jurkat cells, in words” value with Jurkat T cells was “failed to inhibit CICD of Jurkat cells”.
As for `COc1ccc2c(c1)C1=NN(C(C)=O)[C@@H](c3ccc4c(c3)OCCO4)[C@H]1CC2` (relative stereo) [Compound 178, (3R,3aR)-rel-2-acetyl-3,3a,4,5-tetrahydro-3-(3,4-ethylenedioxyphenyl)-8-methoxy-2H-benz[g]indazole], the melting point lay in the range of 189 to 193 °C. Moreover, in data set [1] (setting [3]), the EC50 was found to be 2.1 ± 0.65 µM.
The like results for `COc1ccc2c(c1)C1=NN(C(C)=O)[C@@H](c3cccc(F)c3)[C@H]1CC2` (relative stereo) [Compound 166, (3R,3aR)-rel-2-acetyl-3,3a,4,5-tetrahydro-3-(3-fluorophenyl)-8-methoxy-2H-benz[g]indazole] were, in that order, 176 to 177 °C and 0.68 ± 0.009 µM.
The like results for `COc1ccc([C@H]2[C@H]3CCc4ccccc4C3=NN2C(C)=O)cc1` (relative stereo) [Compound 167, (3R,3aR)-rel-2-acetyl-3,3a,4,5-tetrahydro-3-(4-methoxyphenyl)-2H-benz[g]indazole] were, in that order, 257 to 260 °C and 0.84 ± 0.32 µM.
The like results for `CC(=O)N1N=C2c3ccccc3CC[C@@H]2[C@@H]1c1ccc(F)cc1` (relative stereo) [Compound 165, (3R,3aR)-rel-2-acetyl-3,3a,4,5-tetrahydro-3-(4-fluorophenyl)-2H-benz[g]indazole] were, in that order, 166 to 168 °C and 5.4 ± 1.1 µM.
For the compound `O=C1NCCc2c(OCCCCN3CCCCC3)cccc21` [DPQ, 3,4-Dihydro-5[4(1-piperindinyl)butoxy]-1(2H)-isoquinoline, reference compound], the “inhibition of CICD/necrosis of Jurkat cells, in words” value in the data set with Jurkat T cells was “failed to inhibit CICD of Jurkat cells”.
Turning to `CC(=O)N[C@@H](CS)C(=O)O` [N-acetyl-cysteine, reference compound], in the data set with U937 cells, the “protection” value is “provided protection against menadione”.
Still for that read-out and setting: next, “superoxide dismutase [reference compound]”: “provided protection against menadione”.

These data come from patent US20130158024A1, “TRICYCLIC NECROSTATIN COMPOUNDS” (priority 2005, published 2013).
